Laboratory results published in paper PMC10916352, “Safety Evaluation of a Prototypical Diazirine-Based Covalent Crosslinker and Molecular Adhesive” (International Journal of Toxicology, 2023).
Several values for one entry are separate records, joined by “and”; a condition that tells them apart may be missing. Identical values can stand only once.

Tests used:
[1] = system: Salmonella typhimurium TA100; test: Bacterial reverse mutation test (Ames), strain TA100; format: cell-based; conditions: for Revertant Colonies (With S9), plates A, B, C / Revertant Colonies (Without S9), plates A, B, C: individual plates
Procedure: The reverse mutation test was performed to determine the potential of BondLynx and/or its metabolites to induce reverse mutations at the histidine locus of Salmonella typhimurium.[26],[27] The test employs strains of Salmonella typhimurium carrying mutations in the genes involved in histidine production, such that they are only able to grow in histidine supplemented culture media. Upon exposure to mutagenic materials, these mutations may be reversed, thereby restoring the ability to grow in histidine-free media. When grown in the presence of the test compound on media with a small amount of histidine, tester strains grow briefly to allow the opportunity for mutation, followed by proliferation of revertant colonies upon depletion of the provided histidine. Thus, the number of revertant colonies following incubation is indicative of the ability of the test compound to induce mutations.
Tests were performed on two strains of the bacteria (TA98 and TA100) in the absence and presence of an exogenous mammalian metabolic activation system (5% v/v S9). Positive controls and BondLynx were suspended in dimethyl sulfoxide (DMSO) for testing, and DMSO served as the vehicle control. Positive controls consisted of 2-nitrofluorene (10 μg/plate) for the TA98 strain without S9, methyl mesylate (650 μg/plate) for the TA100 strain without S9, and 2-aminoanthracene for both strains with S9 (1 μg/plate for TA98 and 5 μg/plate for TA100). Eight concentrations of BondLynx (1.7, 5.4, 17, 52, 164, 512, 1600 and 5000 μg/plate) were tested in triplicate. The vehicle control was tested in triplicate and the positive controls were tested singular.
Test solutions were prepared by pre-incubating .1 mL fresh bacterial culture (10^9 cells/mL), .1 mL of a BondLynx dilution or control solution, and .5 mL of S9 mix or .1 M phosphate buffer for 30 min before adding to 3 mL of molten (45 ± 2°C) top agar. After mixing in a vortex, agar solutions were poured onto selective agar plates. Upon solidification, the prepared plates were inverted and incubated at 37.0 ± 1.0°C for 48 ± 4 h. Following incubation, revertant colonies were counted with a Sorcerer Colony Counter. The condition of the bacterial background lawn was evaluated macroscopically and/or microscopically using a dissecting microscope when considered necessary.

[2] = In vitro skin corrosion test, MTT viability; conditions: human, EpiDerm Skin Model (reconstructed human epidermis)
Procedure: (§2) The skin corrosion test was performed to assess the cytotoxic effects of BondLynx immediately following short-term exposure to the stratum corneum of the epidermis using an in vitro skin model.[32]–[34] Cytotoxicity to the skin model was expressed as the reduction of mitochondrial dehydrogenase activity measured by formazan production from 3-(4,5-dimethylthiazol-2-yl)-2,5-diphenyl tetrazolium bromide (MTT). […] BondLynx was checked for direct MTT reduction by incubating at least 50 mg of BondLynx with 1 mL MTT for 3 h to ensure that no blue/purple colour change or precipitate occurred. BondLynx was tested for colour interference by incubating at least 50 mg of BondLynx in water for 1 h and isopropanol for 2-3 h, centrifuging for 30 s at 16,000 g, and measuring the OD570 to ensure an optical density ≤.08 (after subtracting a Milli-Q water blank).
(§3) Incubations were performed at 37.0-37.3°C, in an atmosphere with 77%-95% humidity containing 5.0 ± .5% CO2 in air unless otherwise stated. The positive control was 8.0 N aqueous potassium hydroxide (KOH) solution, and the negative control was Milli-Q water. BondLynx was applied directly to the test system as a solid and spread to match the size of the tissue. Tests were performed in duplicate.
(§4) Skin tissue samples were refrigerated for 1 day upon receipt before placing in a six-well plate with .9 mL supplemented DMEM (just enough to reach the bottom of the tissue) 1 h before testing. A total of four samples were prepared per test item by applying 50 μL of the positive or negative control, or 25 μL of Milli-Q water (to moisten the tissue and ensure close contact) followed by 34.2-39.8 mg of BondLynx. Two samples of each test item were incubated for 3 min at room temperature, while the remaining samples were incubated for 1 h. After exposure, tissues were washed with phosphate buffered saline, dried carefully, and stored in 300 μL DMEM in a 24 well plate until the full six-well plate was dosed and rinsed.
(§5) Cell viability after incubation was determined by replacing the DMEM with 300 μL MTT in supplemented DMEM (1 mg/mL) and incubating for 3 h. Tissues were then washed with phosphate buffer saline, and formazan was extracted with 2 mL isopropanol overnight. The amount of extracted formazan was measured in triplicate for each sample by the OD570.
(§6) Optical density readings were corrected by subtracting the mean blank OD570. Cell viability was calculated as the percentage of the mean corrected OD570 for the test compound relative to the mean OD570 for the negative control (% Viability = ODtest/ODnegative control × 100%).

[3] = system: EpiDerm Skin Model (human-derived epidermal keratinocytes); test: In vitro skin corrosion test, MTT viability; conditions: for OD570 / OD570 corrected: tissues A and B, triplicate readings
Procedure: as §2, §3, §4, §5, §6

[4] = In vitro skin irritation test, MTT viability; format: cell-based, human; conditions: human; 15 min exposure, 42 h post-incubation, relative to phosphate buffered saline; read-out: Cell Viability (%)
Procedure: (§1) Tests were performed in triplicate. […] Following exposure, samples were rinsed with phosphate buffered saline until no test item remain, dried carefully, and placed in a new 2 mL well with pre-warmed Maintenance Medium to incubate for 42 h. After incubation, cell culture inserts were dried carefully, transferred into a 12-well plate prefilled with 2 mL MTT in phosphate buffered saline (.3 mg/mL), and incubated for 3 h. Tissue samples were then dried, and a biopsy punch was taken. The epidermis was separated from the collagen matrix, and both were extracted with 500 μL isopropanol and stored for 70 h refrigerated. The amount of extracted formazan was measured in duplicate for each sample by the OD570.

[5] = system: EPISKIN Small Model (human epidermis model); test: In vitro skin irritation test, MTT viability; format: cell-based
Procedure: as §1

[6] = TA100, without S9, 1.7 μg/plate
[7] = TA100, without S9, 5.4 μg/plate
[8] = TA100, without S9, 164 μg/plate
[9] = TA100, without S9, 512 μg/plate
[10] = TA100, without S9, 1600 μg/plate
[11] = TA100, without S9, 5000 μg/plate

FC(F)(F)C1(c2ccc(C(c3ccc(C4(C(F)(F)F)N=N4)cc3)(C(F)(F)F)C(F)(F)F)cc2)N=N1 [BondLynx, 2,2-bis-[4-[3-(trifluoromethyl)-3H-diazirin-3-yl]phenyl]hexafluoropropane]
Mutagenicity conclusion ([1]; TA100, absence and presence of S9, 1.7 to 5000 μg/plate): non-mutagenic | Total number of revertants relative to concurrent vehicle control ([1]; TA100, vs DMSO vehicle control): less than two times | Revertant Colonies (With S9), Mean ± SD ([1]; TA100, with S9, 1.7 μg/plate): 95 ± 3 | Revertant Colonies (With S9), plates A, B, C ([1]; TA100, with S9, 1.7 μg/plate): 93 and 94 and 98 | Revertant Colonies (With S9), Mean ± SD ([1]; TA100, with S9, 5.4 μg/plate): 92 ± 17 | Revertant Colonies (With S9), plates A, B, C ([1]; TA100, with S9, 5.4 μg/plate): 98 and 73 and 105 | Revertant Colonies (With S9), Mean ± SD ([1]; TA100, with S9, 17 μg/plate): 89 ± 15 | Revertant Colonies (With S9), plates A, B, C ([1]; TA100, with S9, 17 μg/plate): 72 and 98 (2×) | Revertant Colonies (With S9), Mean ± SD ([1]; TA100, with S9, 52 μg/plate): 100 ± 16 | Revertant Colonies (With S9), plates A, B, C ([1]; TA100, with S9, 52 μg/plate): 118 and 93 and 88 | Revertant Colonies (With S9), Mean ± SD ([1]; TA100, with S9, 164 μg/plate): 96 ± 16 | Revertant Colonies (With S9), plates A, B, C ([1]; TA100, with S9, 164 μg/plate): 83 and 113 and 91 | Revertant Colonies (With S9), Mean ± SD ([1]; TA100, with S9, 512 μg/plate): 99 ± 16 | Revertant Colonies (With S9), plates A, B, C ([1]; TA100, with S9, 512 μg/plate): 98 and 84 and 116 | Revertant Colonies (With S9), Mean ± SD ([1]; TA100, with S9, 1600 μg/plate): 88 ± 8 | Revertant Colonies (With S9), plates A, B, C ([1]; TA100, with S9, 1600 μg/plate): 84 and 82 and 97 | Revertant Colonies (With S9), Mean ± SD ([1]; TA100, with S9, 5000 μg/plate): 96 ± 10 | Revertant Colonies (With S9), plates A, B, C ([1]; TA100, with S9, 5000 μg/plate): 107 and 94 and 88 | Revertant Colonies (Without S9), Mean ± SD [1, 6]: 88 ± 3 | Revertant Colonies (Without S9), plates A, B, C [1, 6]: 91 and 86 (2×) | Revertant Colonies (Without S9), Mean ± SD [1, 7]: 112 ± 15 | Revertant Colonies (Without S9), plates A, B, C [1, 7]: 127 and 110 and 98 | Revertant Colonies (Without S9), Mean ± SD ([1]; TA100, without S9, 17 μg/plate): 107 ± 7 | Revertant Colonies (Without S9), plates A, B, C ([1]; TA100, without S9, 17 μg/plate): 114 and 101 and 105 | Revertant Colonies (Without S9), Mean ± SD ([1]; TA100, without S9, 52 μg/plate): 102 ± 22 | Revertant Colonies (Without S9), plates A, B, C ([1]; TA100, without S9, 52 μg/plate): 105 and 122 and 78 | Revertant Colonies (Without S9), Mean ± SD [1, 8]: 100 ± 4 | Revertant Colonies (Without S9), plates A, B, C [1, 8]: 95 and 103 and 102 | Revertant Colonies (Without S9), Mean ± SD [1, 9]: 91 ± 17 | Revertant Colonies (Without S9), plates A, B, C [1, 9]: 84 and 110 and 79 | Revertant Colonies (Without S9), Mean ± SD [1, 10]: 91 ± 12 | Revertant Colonies (Without S9), plates A, B, C [1, 10]: 82 and 86 and 105 | Revertant Colonies (Without S9), Mean ± SD [1, 11]: 102 ± 13 | Revertant Colonies (Without S9), plates A, B, C [1, 11]: 91 and 116 and 99 | Cytotoxicity (condition of microcolony lawn) ([1]; absence of S9, higher concentrations): slight thinning of the microcolony lawn | Cytotoxicity (condition of microcolony lawn) ([1]; presence of S9, any tested dose level): toxicity was not observed | viability at 3 min [2]: 101% | viability at 1 h [2]: 95% | Mean ± SD (OD570 corrected) ([3]; 3 min exposure): 1.7 ± 0.1 | OD570 ([3]; 3 min exposure): 1.8819 and 1.869 and 1.8445 and 1.7365 and 1.7069 and 1.7026 | OD570 corrected ([3]; 3 min exposure): 1.837 and 1.8241 and 1.7996 and 1.6916 and 1.662 and 1.6577 | Mean ± SD (OD570 corrected) ([3]; 1 h exposure): 1.85 ± .09 | OD570 ([3]; 1 h exposure): 1.9919 and 1.9396 and 1.9528 and 1.8727 and 1.8128 and 1.8033 | OD570 corrected ([3]; 1 h exposure): 1.947 and 1.8947 and 1.9079 and 1.8278 and 1.7679 and 1.7584 | Skin corrosion classification ([3]; viability >50% after 3 min and >15% after 1 h): not corrosive | viability at 15 min [4]: 106% | Mean ± SD (OD570 corrected) ([5]; 15 min exposure, 42 h post-incubation): 1.019 ± .011 | OD570 ([5]; 15 min exposure, 42 h post-incubation, tissues A-C, duplicate readings): 1.0621 and 1.0517 and 1.0668 and 1.0420 and 1.0901 and 1.0602 | Skin irritation classification ([5]; viability >50%): non-irritant
